This note sets out measurements from the NIST ThermoML archive (doi:10.1021/je030147g).

Structures are written as SMILES. ± gives the expanded uncertainty stated by the source.

Data set [1] can be described thus: refractive index (Na D-line) (dimensionless). As to conditions: 101.33 kPa, Liquid.
The conditions of data set [2]: 101.33 kPa, Liquid.

Turning to `c1ccncc1` [pyridine], the values for the refractive index in data set [1] (298.15 K), in data set [1] (303.15 K) and in data set [1] (308.15 K) were 1.5062 ± 0.0012, 1.5025 ± 0.0012 and 1.5016 ± 0.0012, respectively. Further, the mass density – broadly, the mass of a sample divided by its volume – is recorded as 979 ± 1 kg/m3 in data set [2] (298.15 K), 973.7 ± 1 kg/m3 in data set [2] (303.15 K) and 968.6 ± 1.1 kg/m3 in data set [2] (308.15 K). The speed of sound – broadly, the propagation velocity of pressure waves in the medium – in data set [2] (298.15 K) is reported as 1412 ± 6 m/s. Further, the results for the viscosity in data set [2] (298.15 K), in data set [2] (303.15 K) and in data set [2] (308.15 K) were 0.885 ± 0.022 mPa·s, 0.82 ± 0.021 mPa·s and 0.766 ± 0.02 mPa·s, respectively.
For `ClC(Cl)=C(Cl)Cl` [tetrachloroethene], the refractive index (commonly a measure of how strongly the sample bends light) in data set [1] (298.15 K) turned out to be 1.5036 ± 0.0012; in data set [1] (303.15 K) it was 1.5005 ± 0.0012; in data set [1] (308.15 K) it was 1.4978 ± 0.0012. Further, the mass density in data set [2] (298.15 K) came to 1616 ± 1.7 kg/m3; in data set [2] (303.15 K) it was 1607.5 ± 1.8 kg/m3; in data set [2] (308.15 K), 1597.5 ± 1.8 kg/m3. For the same molecule, in data set [2] (298.15 K), the speed of sound was determined as 1033 ± 5 m/s. Further, the results for the viscosity in data set [2] (298.15 K), in data set [2] (303.15 K) and in data set [2] (308.15 K) were 0.875 ± 0.022 mPa·s, 0.831 ± 0.021 mPa·s and 0.791 ± 0.02 mPa·s, respectively.
As for `CCCCCCCCCCCCCC` [tetradecane], the refractive index stood at 1.4282 ± 0.0007 in data set [1] (298.15 K), 1.426 ± 0.0007 in data set [1] (303.15 K) and 1.4236 ± 0.0007 in data set [1] (308.15 K). Further, the mass density is reported as 760.7 ± 0.8 kg/m3 in data set [2] (298.15 K), 757 ± 0.8 kg/m3 in data set [2] (303.15 K) and 753.3 ± 0.9 kg/m3 in data set [2] (308.15 K). Further, in data set [2] (298.15 K), the speed of sound is recorded as 1315 ± 6 m/s. Besides, the values for the viscosity in data set [2] (298.15 K), in data set [2] (303.15 K) and in data set [2] (308.15 K) were 2.032 ± 0.19 mPa·s, 1.827 ± 0.17 mPa·s and 1.653 ± 0.15 mPa·s, respectively.
